# Legend:
# [1] = system: multi-resistant Plutella xylostella larvae having the G4946E resistance mutation (strain R1); experiment: Resistant Plutella xylostella R1 (Diamond Back Moth) Larvicide L3, Feeding/Contact; assay type: in vivo; details: for EC80: Plutella xylostella, in Brassica rapa, 96 h, read-out: Rate providing at least 80% control of the resistant strain of Plutella xylostella R1
# Procedure: Resistant Plutella xylostella R1 (Diamond Back Moth) Larvicide L3, Feeding/Contact
# Chinese cabbage plants were sprayed with diluted test solutions in an application chamber. Cut off leaves were placed into petri dishes with wetted filter paper and infested 1 day after application with 10 L3 multi-resistant Plutella xylostella larvae having the G4946E resistance mutation. Samples were assessed 4 days after infestation for mortality and growth regulation. CTPR was used as standard and a resistance factor of 146 was obtained for this strain.
# Plutella xylostella resistant strain R1 originally collected from Taiwan in 2012 that carries the RyR mutation G4946E conferring resistance to diamides. The strain is reared on cabbage plants (Brassica aleracea) and selected approximately every two weeks with chlorantraniliprole.
# [2] = system: Plutella xylostella resistant strain R4 (RyR mutation G4946E); experiment: Resistant Plutella xylostella R4 (Diamond back moth) larvicide L1, feeding/contact; assay type: in vivo; details: for Rate providing at least 80% control of the resistant strain of Plutella xylostella R4: L1, artificial diet in 24-well plates, around 30 eggs, mortality vs untreated assessed 8 days after infestation
# Procedure: Resistant Plutella xylostella R^4 (Diamond back moth) larvicide L1, feeding/contact 24-well microtiter plates with artificial diet were treated with aqueous test solutions prepared from 10′000 ppm DMSO stock solutions by pipetting. After drying, around 30 Plutella eggs were pipetted through a plastic stencil onto a gel blotting paper and the plate was closed with it. The samples were assessed for mortality in comparison to untreated samples 8 days after infestation.
# CTPR was used as standard and a resistance factor of 242 was obtained for this strain
# Plutella xylostella resistant strain R4 originated in the lab in 2021 from crossing the R1 strain with a lab-reared susceptible P. xylostella strain (SUS). R4 can be reared and tested on artificial diet and also carries the RyR mutation G4946E conferring resistance to diamides. The strain is selected approximately every two weeks with chlorantraniliprole.
melting point [°C],SMILES,EC80 [1] [µg/mL],also measured
,CNC(=O)c1cc2cc(Br)ccc2c(Br)c1NC(=O)c1cc(C(F)(F)F)nn1-c1ncccc1Cl,50,
,CNC(=O)c1cc2cc(Br)ccc2c(Br)c1NC(=O)c1cc(OCC(F)(F)F)nn1-c1ncccc1Cl,12.5,
,CC(C)NC(=O)c1cc2nn(C)cc2c(Cl)c1NC(=O)c1cc(C(F)(F)F)nn1-c1ncccc1Cl,> 50,Rate providing at least 80% control of the resistant strain of Plutella xylostella R4 [2]: >50 ppm
,CNC(=O)c1cc2cc(Br)ccc2c(Br)c1NC(=O)c1cc(Br)nn1-c1ncccc1Cl,> 200,
,CNC(=O)c1cc2cc(Cl)ccc2c(Cl)c1NC(=O)c1cc(Br)nn1-c1ncccc1Cl,200,
,O=C(NC1CC1)c1cc2cc(Br)ccc2c(Cl)c1NC(=O)c1cc(Br)nn1-c1ncccc1Cl,200,
,CC(C)NC(=O)c1cc2cc(Br)ccc2c(Cl)c1NC(=O)c1cc(Br)nn1-c1ncccc1Cl,200,
,CNC(=O)c1cc2nc(C(F)(F)F)ccc2c(C)c1NC(=O)c1cc(C(F)F)nn1-c1ncccc1Cl,200,
,CNC(=O)c1cc2nc(C)oc2c(C)c1NC(=O)c1cc(Br)nn1-c1ncccc1Cl,,Rate providing at least 80% control of the resistant strain of Plutella xylostella R4 [2]: >50 ppm
,CNC(=O)c1cc2cc(Br)ccc2c(Cl)c1NC(=O)c1cc(C(F)(F)F)nn1-c1ncccc1Cl,> 200,
,CNC(=O)c1cc2cc(Br)ccc2c(Cl)c1NC(=O)c1cc(Cl)nn1-c1ncccc1Cl,> 200,
223 to 225,Cc1c(NC(=O)c2cc(C(F)(F)F)nn2-c2ncccc2Cl)c(C(N)=O)cc2c1OC(F)(F)O2,,
264 to 266,NC(=O)c1cc2ccccc2c(Cl)c1NC(=O)c1cc(OCC(F)(F)C(F)(F)F)nn1-c1ncccc1Cl,,
242 to 244,Cc1c(NC(=O)c2cc(Br)nn2-c2ncccc2Cl)c(C(N)=O)cc2nn(C)cc12,,
149 to 157,NC(=O)c1cc2cc(Br)ccc2c(Cl)c1NC(=O)c1cc(Cn2ncc3c(Cl)cccc32)nn1-c1ncccc1Cl,,
190 to 226,NC(=O)c1cc2cc(Br)ccc2c(Cl)c1NC(=O)c1cc(Cn2nnc(C(F)(F)F)n2)nn1-c1ncccc1Cl,,
,"CNC(=O)c1cc(Cl)cc(C)c1NC(=O)c1cc(Br)nn1-c1ncccc1Cl [CTPR, chlorantraniliprole, reference compound]",,"resistance factor ([1]; strain R1, CTPR used as standard): 146; resistance factor ([2]; strain R4, CTPR used as standard): 242"
,"NC(=O)c1cc2cc(Br)ccc2c(Br)c1NC(=O)c1cc(OCC(F)(F)F)nn1-c1ncccc1Cl [P.1, 2-(3-chloro-2-pyridyl)-N-(1,6-dibromo-3-carbamoyl-2-naphthyl)-5-(2,2,2-trifluoroethoxy)pyrazole-3-carboxamide]",3,

melting point [°C],SMILES,EC80 [1] [µg/mL],also measured
,"NC(=O)c1cc2cc(Br)ccc2c(Br)c1NC(=O)c1cc(C(F)(F)F)nn1-c1ncccc1Cl [P.4, 2-(3-chloro-2-pyridyl)-N-(1,6-dibromo-3-carbamoyl-2-naphthyl)-5-(trifluoromethyl)pyrazole-3-carboxamide]",12.5,
,"Cc1c(NC(=O)c2cc(C(F)F)nn2-c2ncccc2Cl)c(C(N)=O)cc2nc(C(F)(F)F)ccc12 [P.7, 6-[[2-(3-chloro-2-pyridyl)-5-(difluoromethyl)pyrazole-3-carbonyl]amino]-5-methyl-2-(trifluoromethyl)quinoline-7-carboxamide]",12.5,
,"NC(=O)c1cc2cc(Br)ccc2c(Br)c1NC(=O)c1cc(Br)nn1-c1ncccc1Cl [P.8, 5-bromo-2-(3-chloro-2-pyridyl)-N-(1,6-dibromo-3-carbamoyl-2-naphthyl)pyrazole-3-carboxamide]",50,
155 to 157,"NC(=O)c1cc2ccccc2c(Cl)c1NC(=O)c1cc(C(F)(F)F)nn1-c1ncccc1Cl [P.10, N-(3-carbamoyl-1-chloro-2-naphthyl)-2-(3-chloro-2-pyridyl)-5-(trifluoromethyl)pyrazole-3-carboxamide]",,
158 to 160,"NC(=O)c1cc2ccccc2c(Cl)c1NC(=O)c1cc(OCC(F)(F)F)nn1-c1ncccc1Cl [P.11, N-(3-carbamoyl-1-chloro-2-naphthyl)-2-(3-chloro-2-pyridyl)-5-(2,2,2-trifluoroethoxy)pyrazole-3-carboxamide]",,
154 to 156,"COc1cc(C(=O)Nc2c(C(N)=O)cc3ccccc3c2Cl)n(-c2ncccc2Cl)n1 [P.13, N-(3-carbamoyl-1-chloro-2-naphthyl)-2-(3-chloro-2-pyridyl)-5-methoxy-pyrazole-3-carboxamide]",,
204 to 206,"NC(=O)c1nc2ccccc2c(Cl)c1NC(=O)c1cc(Br)nn1-c1ncccc1Cl [P.18, 3-[[5-bromo-2-(3-chloro-2-pyridyl)pyrazole-3-carbonyl]amino]-4-chloro-quinoline-2-carboxamide]",,
143 to 145,"NC(=O)c1cc2ccccc2c(Cl)c1NC(=O)c1cc(OC(F)F)nn1-c1ncccc1Cl [P.20, N-(3-carbamoyl-1-chloro-2-naphthyl)-2-(3-chloro-2-pyridyl)-5-(difluoromethoxy)pyrazole-3-carboxamide]",,
,"NC(=O)c1cc2cc(Cl)ccc2c(Cl)c1NC(=O)c1cc(Br)nn1-c1ncccc1Cl [P.25, 5-bromo-N-(3-carbamoyl-1,6-dichloro-2-naphthyl)-2-(3-chloro-2-pyridyl)pyrazole-3-carboxamide]",50,
,"NC(=O)c1cc2cc(Br)ccc2c(Cl)c1NC(=O)c1cc(Cl)nn1-c1ncccc1Cl [P.26, N-(6-bromo-3-carbamoyl-1-chloro-2-naphthyl)-5-chloro-2-(3-chloro-2-pyridyl)pyrazole-3-carboxamide]",50,
,"NC(=O)c1cc2cc(Br)ccc2c(Cl)c1NC(=O)c1cc(Br)nn1-c1ncccc1Cl [P.27, 5-bromo-N-(6-bromo-3-carbamoyl-1-chloro-2-naphthyl)-2-(3-chloro-2-pyridyl)pyrazole-3-carboxamide]",50,
,"NC(=O)c1cc2cc(Br)ccc2c(Cl)c1NC(=O)c1cc(C(F)(F)F)nn1-c1ncccc1Cl [P.28, N-(6-bromo-3-carbamoyl-1-chloro-2-naphthyl)-2-(3-chloro-2-pyridyl)-5-(trifluoromethyl)pyrazole-3-carboxamide]",50,
170 to 172,"NC(=O)c1cc2cc(Br)ccc2c(Br)c1NC(=O)c1cc(Cl)nn1-c1ncccc1Cl [P.31, 5-chloro-2-(3-chloro-2-pyridyl)-N-(1,6-dibromo-3-carbamoyl-2-naphthyl)pyrazole-3-carboxamide]",,
216 to 218,"Cc1ccc2c(C)c(NC(=O)c3cc(C(F)(F)F)nn3-c3ncccc3Cl)c(C(N)=O)cc2c1 [P.32, N-(3-carbamoyl-1,6-dimethyl-2-naphthyl)-2-(3-chloro-2-pyridyl)-5-(trifluoromethyl)pyrazole-3-carboxamide]",,
,"Cn1cc2c(Cl)c(NC(=O)c3cc(C(F)(F)F)nn3-c3ncccc3Cl)c(C(N)=O)cc2n1 [P.36, 4-chloro-5-[[2-(3-chloro-2-pyridyl)-5-(trifluoromethyl)pyrazole-3-carbonyl]amino]-2-methyl-indazole-6-carboxamide]",3,Rate providing at least 80% control of the resistant strain of Plutella xylostella R4 [2]: 12.5 ppm
135 to 140,"Cc1c(NC(=O)c2cc(OCC(F)(F)F)nn2-c2ncccc2Cl)c(C(N)=O)cc2ncsc12 [P.44, 6-[[2-(3-chloro-2-pyridyl)-5-(2,2,2-trifluoroethoxy)pyrazole-3-carbonyl]amino]-7-methyl-1,3-benzothiazole-5-carboxamide]",,
175 to 180,"Cc1nc2cc(C(N)=O)c(NC(=O)c3cc(Br)nn3-c3ncccc3Cl)c(C)c2s1 [P.45, 6-[[5-bromo-2-(3-chloro-2-pyridyl)pyrazole-3-carbonyl]amino]-2,7-dimethyl-1,3-benzothiazole-5-carboxamide]",,
,"Cc1nc2cc(C(N)=O)c(NC(=O)c3cc(Br)nn3-c3ncccc3Cl)c(C)c2o1 [P.46, 6-[[5-bromo-2-(3-chloro-2-pyridyl)pyrazole-3-carbonyl]amino]-2,7-dimethyl-1,3-benzoxazole-5-carboxamide]",,Rate providing at least 80% control of the resistant strain of Plutella xylostella R4 [2]: 12.5 ppm

# Source: patent US20240251795A1, “METHOD FOR C[…] RESISTANT PESTS & COMPOUNDS THEREFOR” (priority 2021, published 2024)
